# Results as given in ChEMBL document CHEMBL5543149, “Discovery of Novel Aryl Triazolone Dihydropyridines (ATDPs) Targeting Highly Conserved Residue W229 as Promising HIV-1 NNRTIs” (J Med Chem, 2024).
# Tests used:
# [1] = tested on: Human immunodeficiency virus 1; test: Antiviral activity against wild type HIV-1 IIIB infected in human MT4 cells assessed as protection against virus-induced cytopathic effect incubated for 5 days by MTT assay; type: functional, organism-based; conditions: Human immunodeficiency virus 1, IIIB, MT4, 120 h
# [2] = Cytotoxicity against human MT4 cells assessed as reduction in cell viability by MTT assay; type: toxicity, cell-based
# [3] = Selectivity index, ratio of CC50 for cytotoxicity against human MT4 cells assessed as reduction in cell viability by MTT assay to EC50 for antiviral activity against wild type HIV-1 IIIB infected in human MT4 cells assessed as protection against virus-induced cytopathic effect; type: toxicity, cell-based; conditions: read-out: Ratio CC50/EC50
# [4] = tested on: Human immunodeficiency virus 1; test: Antiviral activity against NNRTI-resistant HIV-1 harboring L100I mutant infected in human MT4 cells assessed as protection against virus-induced cytopathic effect by MTT assay; type: functional, organism-based; conditions: Human immunodeficiency virus 1, MT4
# [5] = tested on: Human immunodeficiency virus 1; test: Antiviral activity against NNRTI-resistant HIV-1 harboring K103N mutant infected in human MT4 cells assessed as protection against virus-induced cytopathic effect by MTT assay; type: functional, organism-based; conditions: Human immunodeficiency virus 1, MT4
# [6] = tested on: Human immunodeficiency virus 1; test: Antiviral activity against NNRTI-resistant HIV-1 harboring Y181C mutant infected in human MT4 cells assessed as protection against virus-induced cytopathic effect by MTT assay; type: functional, organism-based; conditions: Human immunodeficiency virus 1, MT4
# [7] = tested on: Human immunodeficiency virus 1; test: Antiviral activity against NNRTI-resistant HIV-1 harboring Y188L mutant infected in human MT4 cells assessed as protection against virus-induced cytopathic effect by MTT assay; type: functional, organism-based; conditions: Human immunodeficiency virus 1, MT4
# [8] = tested on: Human immunodeficiency virus 1; test: Antiviral activity against NNRTI-resistant HIV-1 harboring E138K mutant infected in human MT4 cells assessed as protection against virus-induced cytopathic effect by MTT assay; type: functional, organism-based; conditions: Human immunodeficiency virus 1, MT4
# [9] = tested on: Human immunodeficiency virus 1; test: Antiviral activity against NNRTI-resistant HIV-1 harboring RES056 mutant infected in human MT4 cells assessed as protection against virus-induced cytopathic effect by MTT assay; type: functional, organism-based; conditions: Human immunodeficiency virus 1, MT4
# [10] = target: Human immunodeficiency virus type 1 reverse transcriptase (Human immunodeficiency virus 1, UniProt Q72547); test: Inhibition of wild type HIV-1 Reverse transcriptase assessed as reduction of biotin-dUTP incorporation into […] using ABTS as substrate preincubated with compound for 1 hr followed by substrate addition in presence of biotin-labeled dNTPs by ELISA analysis
# [11] = Solubility of compound at pH 2 incubated for 2 hrs by HPLC analysis; type: physicochemical; conditions: buffer
# [12] = Water solubility of compound at pH 7 incubated for 2 hrs by HPLC analysis; type: physicochemical
# [13] = Water solubility of compound at pH 7.4 incubated for 2 hrs by HPLC analysis; type: physicochemical
# [14] = Half life in Sprague-Dawley rat at 2 mg/kg, iv measured upto 24 hrs by LC-MS/MS analysis; type: ADME, organism-based; conditions: in vivo
# [15] = Half life in Sprague-Dawley rat at 10 mg/kg, po measured upto 24 hrs by LC-MS/MS analysis; type: ADME, organism-based; conditions: in vivo
# [16] = Tmax in Sprague-Dawley rat at 2 mg/kg, iv measured upto 24 hrs by LC-MS/MS analysis; type: ADME, organism-based; conditions: in vivo
# [17] = Tmax in Sprague-Dawley rat at 10 mg/kg, po measured upto 24 hrs by LC-MS/MS analysis; type: ADME, organism-based; conditions: in vivo
# [18] = Cmax in Sprague-Dawley rat at 2 mg/kg, iv measured upto 24 hrs by LC-MS/MS analysis; type: ADME, organism-based; conditions: in vivo
# [19] = Cmax in Sprague-Dawley rat at 10 mg/kg, po measured upto 24 hrs by LC-MS/MS analysis; type: ADME, organism-based; conditions: in vivo
# [20] = AUC (0 to t ) in Sprague-Dawley rat at 2 mg/kg, iv measured upto 24 hrs by LC-MS/MS analysis; type: ADME, organism-based; conditions: in vivo
# [21] = AUC (0 to t ) in Sprague-Dawley rat at 10 mg/kg, po measured upto 24 hrs by LC-MS/MS analysis; type: ADME, organism-based; conditions: in vivo
# [22] = AUC (0 to infinity) in Sprague-Dawley rat at 2 mg/kg, iv measured upto 24 hrs by LC-MS/MS analysis; type: ADME, organism-based; conditions: in vivo
# [23] = AUC (0 to infinity) in Sprague-Dawley rat at 10 mg/kg, po measured upto 24 hrs by LC-MS/MS analysis; type: ADME, organism-based; conditions: in vivo
# [24] = Clearance in Sprague-Dawley rat at 2 mg/kg, iv measured upto 24 hrs by LC-MS/MS analysis; type: ADME, organism-based; conditions: in vivo
# [25] = Oral bioavailability in Sprague-Dawley rat at 10 mg/kg measured upto 24 hrs by LC-MS/MS analysis; type: ADME, organism-based; conditions: in vivo
# [26] = tested on: Human immunodeficiency virus 1; test: Antiviral activity against wild type HIV-1 infected in mouse harboring […] mutant at 10 mg/kg, po measured for 24 hrs; type: functional, organism-based; conditions: Human immunodeficiency virus 1, 24 h
# [27] = tested on: Human immunodeficiency virus 1; test: Antiviral activity against wild type HIV-1 infected in mouse harboring RES056 mutant at 10 mg/kg, po measured for 24 hrs; type: functional, organism-based; conditions: Human immunodeficiency virus 1, 24 h
# [28] = tested on: Human immunodeficiency virus 1; test: Antiviral activity against wild type HIV-1 infected in mouse at 10 mg/kg, po measured for 24 hrs; type: functional, organism-based; conditions: Human immunodeficiency virus 1, 24 h
# [29] = tested on: Human immunodeficiency virus 1; test: Antiviral activity against wild type HIV-1 infected in mouse harboring L100I mutant at 10 mg/kg, po measured for 24 hrs; type: functional, organism-based; conditions: Human immunodeficiency virus 1, 24 h
# [30] = tested on: Human immunodeficiency virus 1; test: Antiviral activity against wild type HIV-1 infected in mouse harboring K103N mutant at 10 mg/kg, po measured for 24 hrs; type: functional, organism-based; conditions: Human immunodeficiency virus 1, 24 h
# [31] = tested on: Human immunodeficiency virus 1; test: Antiviral activity against wild type HIV-1 infected in mouse harboring Y181C mutant at 10 mg/kg, po measured for 24 hrs; type: functional, organism-based; conditions: Human immunodeficiency virus 1, 24 h
# [32] = tested on: Human immunodeficiency virus 1; test: Antiviral activity against wild type HIV-1 infected in mouse harboring E138K mutant at 10 mg/kg, po measured for 24 hrs; type: functional, organism-based; conditions: Human immunodeficiency virus 1, 24 h
# [33] = Acute toxicity in Kunming mouse assessed as behavioral abnormalities at 2000 mg/kg, po measured for 7 days; type: organism-based; conditions: in vivo, 168 h, time 7 day
# [34] = Acute toxicity in Kunming mouse assessed as change in body weight at 2000 mg/kg, po measured for 7 days; type: organism-based; conditions: in vivo, 168 h, time 7 day
# [35] = Subacute toxicity in Kunming mouse assessed as lethargy at 50 mg/kg, po administered every 2 days for 2 weeks; type: organism-based; conditions: in vivo, 336 h
# [36] = Subacute toxicity in Kunming mouse assessed as clonic convulsion at 50 mg/kg, po administered every 2 days for 2 weeks; type: organism-based; conditions: in vivo, 336 h
# [37] = Subacute toxicity in Kunming mouse assessed as anorexia at 50 mg/kg, po administered every 2 days for 2 weeks; type: organism-based; conditions: in vivo, 336 h
# [38] = Subacute toxicity in Kunming mouse assessed as ruffled fur at 50 mg/kg, po administered every 2 days for 2 weeks; type: organism-based; conditions: in vivo, 336 h
# [39] = Subacute toxicity in Kunming mouse assessed as heart damage at 50 mg/kg, po administered every 2 days for 2 weeks; type: organism-based; conditions: in vivo, 336 h
# [40] = Subacute toxicity in Kunming mouse assessed as liver damage at 50 mg/kg, po administered every 2 days for 2 weeks; type: organism-based; conditions: in vivo, 336 h
# [41] = Subacute toxicity in Kunming mouse assessed as spleen damage at 50 mg/kg, po administered every 2 days for 2 weeks; type: organism-based; conditions: in vivo, 336 h
# [42] = Subacute toxicity in Kunming mouse assessed as lung damage at 50 mg/kg, po administered every 2 days for 2 weeks; type: organism-based; conditions: in vivo, 336 h
# [43] = Subacute toxicity in Kunming mouse assessed as kidney damage at 50 mg/kg, po administered every 2 days for 2 weeks; type: organism-based; conditions: in vivo, 336 h
smiles,measurement,setting,value
Cn1c(Cn2ccc(C(F)(F)F)c(Oc3cc(Cl)cc(-c4ccc(Br)cc4)c3)c2=O)n[nH]c1=O,EC50,[1],9 nM
same,CC50,[2],118000 nM
same,selectivity ratio,[3],13100
same,EC50,[4],11 nM
same,EC50,[5],13 nM
same,EC50,[6],18 nM
same,EC50,[7],703 nM
same,EC50,[8],13 nM
same,EC50,[9],59 nM
same,IC50,[10],40 nM
same,solubility at 2 h,[11],107 µg/mL
same,solubility at 2 h,[12],45.7 µg/mL
same,solubility at 2 h,[13],32.2 µg/mL
same,half-life,[14],4.49 h
same,half-life,[15],5.09 h
same,Tmax,[16],3 min
same,Tmax,[17],4 h
same,Cmax,[18],1950 ng/mL
same,Cmax,[19],3340 ng/mL
same,AUC(0-t) at 24 h,[20],5490 ng·h/mL
same,AUC(0-t) at 24 h,[21],39600 ng·h/mL
same,AUC(0-inf),[22],7670 ng·h/mL
same,AUC(0-inf),[23],41800 ng·h/mL
same,clearance,[24],4.35 mL/min/kg
same,bioavailability,[25],109%
same,EC50,[26],703 nM
same,EC50,[27],56 nM
same,EC50,[28],9 nM
same,EC50,[29],11 nM
same,EC50,[30],13 nM
same,EC50,[31],16 nM
same,EC50,[32],13 nM
same,Activity,[33],Non-Toxic
same,Activity,[34],Non-Toxic
same,Activity,[35],Non-Toxic
same,Activity,[36],Non-Toxic
same,Activity,[37],Non-Toxic
same,Activity,[38],Non-Toxic
same,Activity,[39],Non-Toxic
same,Activity,[40],Non-Toxic
same,Activity,[41],Non-Toxic
same,Activity,[42],Non-Toxic
same,Activity,[43],Non-Toxic
